Consider six molecules from US9249105B2, “Crystalline forms of an alkoxyimidazol-1-ylmethyl biphenyl carboxylic acid” (Theravance Biopharma R&D IP, LLC, priority 2010, dated 2016).

Where a name gives a salt, the structure may show the parent alone.

One data set has as its target T1, AT1 receptor (Homo sapiens, UniProt P30556).
T1 sequence (P30556 1-359): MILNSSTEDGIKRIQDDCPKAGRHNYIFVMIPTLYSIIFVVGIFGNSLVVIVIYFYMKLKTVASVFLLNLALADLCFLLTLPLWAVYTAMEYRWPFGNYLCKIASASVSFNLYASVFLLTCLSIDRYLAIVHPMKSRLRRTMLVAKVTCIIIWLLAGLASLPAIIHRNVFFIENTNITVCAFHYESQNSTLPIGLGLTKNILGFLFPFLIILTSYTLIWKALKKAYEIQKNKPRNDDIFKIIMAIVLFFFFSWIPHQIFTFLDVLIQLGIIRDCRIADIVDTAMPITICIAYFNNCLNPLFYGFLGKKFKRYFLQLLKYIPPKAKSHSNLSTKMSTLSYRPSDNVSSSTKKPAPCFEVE
Kind of data set: AT1 receptor binding (inhibitory constant).

Data set [1] in a line: Thermal stability on storage, purity by HPLC. It counts as physicochemical. The following applies: 40° C. (open container), 75% relative humidity, one month; for Purity Change: HPLC area percentage (% AUC). The method, then:
Weighed samples of the crystalline materials were stored at 40° C. (open container) and 75% relative humidity, for one month. The samples were then analyzed by the following HPLC method:
Column: Agilent Zorbox SB-C18, 4.6×250 mm, 5 μm (Part No. 880975-902). Mobile Phase A: 80% H2O, 20% MeCN, 0.01% TFA. Mobile Phase B: 80% MeCN, 20% H2O, 0.01% TFA. Flow rate: 1 mL/min. Injection Volume: 20 μL. Detector: 250 nm.
The purity of the samples was determined by HPLC area percentage (% AUC).

Data set [2] in a line: Differential scanning calorimetry (thermal stability). It counts as physicochemical. The following applies: heating ramp 10° C./min. The method, then: Differential scanning calorimetry (DSC) experiments were performed using a TA Instruments Model Q-100 module with a Thermal Analyst controller. Data were collected and analyzed using TA Instruments Universal Analysis software. A sample of each crystalline form was accurately weighed into a covered aluminum pan. After a 5 minute isothermal equilibration period at 5° C., the sample was heated using a linear heating ramp of 10° C./min from 0° C. to 200° C.

Data set [3] can be described thus: Reslurrying of hemiedisylate salt form I and form II. It counts as physicochemical. The following applies: EtOH/MTBE with or without water, room temperature. The method, then: Hemiedisylate salt form II (50 mg, 80 μmol) and hemiedisylate salt form I (50 mg, 80 μmol) were combined with a premixed solution of EtOH (420 μL) and MTBE (1.6 mL, 13 mmol). The mixture was capped and stirred at room temperature. The resulting solids were filtered and washed with dioxane to yield a solid (86 mg), which was determined to be hemiedisylate salt form II.
Hemiedisylate salt form II (50 mg, 80 μmol) and hemiedisylate salt form I (50 mg, 80 μmol) were combined with a premixed solution of EtOH (420 μL) and MTBE (1.6 mL, 13 mmol). Water (20 μL) was added and the mixture was capped and stirred at room temperature. The resulting solids were filtered and washed with dioxane to yield a solid (67 mg), which was determined to be hemiedisylate salt form II.

The nature of data set [4]: Dynamic moisture sorption (DMS) assessment. It counts as physicochemical. The following applies: 25° C. On the procedure:
Dynamic moisture sorption (DMS) measurements were performed for each crystalline form using a VTI atmospheric microbalance, SGA-100 system (VTI Corp., Hialeah, Fla. 33016). A weighed sample was used and the humidity was set at the ambient value at the start of the analysis. The DMS analysis consisted of a scan rate of 5% RH/step over the full humidity range of 5% RH to 90% RH. The DMS run was performed isothermally at 25° C.

Data set [5] can be described thus: Solubility in buffers over 24 hours. It counts as physicochemical. As to conditions: pH>3, room temperature, FIG. 16. On the procedure:
Samples of the crystalline materials were evaluated over a 24 hour period at several pH ranges. The following buffer systems were used: • HCl buffer pH @ 1.15 • HCl buffer pH @ 1.94 • Potassium biphthate buffer pH @ 2.97 • Acetate buffer pH @ 4.17 • Acetate buffer pH @ 5.16 • Phosphate buffer pH @ 6.04 • Phosphate buffer pH @ 7.0
Samples (7-8 mg) of the crystalline materials were combined with 2 mL of each of the buffers in a 5 mL glass vial. The vials were then mounted onto an automatic rotator and rotate for 24 hours at room temperature. The resulting suspensions were filtered using a 0.45 μm filter (PVDF membrane) into a clean vial for HPLC analysis.

What is called Ki is a dissociation constant, usually derived from enzyme kinetics or from competition with a known ligand.

For `CCOc1nc(CC)c(CNC(=O)[C@@H](S)CC(C)C)n1Cc1ccc(-c2ccccc2C(=O)O)cc1F` [compound of formula I, 4′-{2-ethoxy-4-ethyl-5-[((S)-2-mercapto-4-methylpentanoylamino)methyl]imidazol-1-ylmethyl}-3′-fluorobiphenyl-2-carboxylic acid], the Ki at AT1 receptor was ≤ 100 nM.

In the case of `CCOc1nc(CC)c(CNC(=O)[C@@H](S)CC(C)C)n1Cc1ccc(-c2ccccc2C(=O)O)cc1F` [freebase form, 4′-{2-ethoxy-4-ethyl-5-[((S)-2-mercapto-4-methylpentanoylamino)methyl]imidazol-1-ylmethyl}-3′-fluorobiphenyl-2-carboxylic acid, reference compound], the “Purity Change” value in data set [1] is recorded as −2.9%.

Take `CCOc1nc(CC)c(CNC(=O)[C@@H](S)CC(C)C)n1Cc1ccc(-c2ccccc2C(=O)O)cc1F` [hemiedisylate form II, Crystalline Hemiedisylate Salt Form II of 4′-{2-Ethoxy-4-ethyl-5-[((S)-2-mercapto-4-methylpentanoylamino)methyl]imidazol-1-ylmethyl}-3′-fluorobiphenyl-2-carboxylic Acid]: in data set [1], the “thermal stability on storage” value is given as “more stable than the previously known freebase form” and the “Purity Change” value is given as −0.3%. Moreover, the “temperature below which no significant thermal decomposition is seen (DSC)” value in data set [2] was ≥ 182 °C. The “relative stability of crystalline forms on reslurrying” value in data set [3] is given as “more stable than crystalline hemiedisylate salt form I”. Besides, the “weight gain, humidity range 5% RH up to 90% RH” value (from here on “weight gain … to 90% RH”) in data set [4] (5% RH to 90% RH) was “about 0.16%”. Also, the “weight gain when exposed to up to 70% RH” value in data set [4] is reported as “less than 0.10%”. In addition, the “solubility compared with the freebase” value in data set [5] is reported as “more soluble than the freebase”.

Turning to `CCOc1nc(CC)c(CNC(=O)[C@@H](S)CC(C)C)n1Cc1ccc(-c2ccccc2C(=O)O)cc1F` [hemiedisylate salt form I, Crystalline Hemiedisylate Salt Form I of 4′-{2-Ethoxy-4-ethyl-5-[((S)-2-mercapto-4-methylpentanoylamino)methyl]imidazol-1-ylmethyl}-3′-fluorobiphenyl-2-carboxylic Acid], the “temperature below which no significant thermal decomposition is seen (DSC)” value in data set [2] was ≥ 158 °C. Also, the “weight gain … to 90% RH” value in data set [4] (5% RH to 90% RH) is recorded as “about 0.38%”. For the same molecule, the “weight gain when exposed to up to 70% RH” value in data set [4] was “less than 0.26%”.

With `CCOc1nc(CC)c(CNC(=O)[C@@H](S)CC(C)C)n1Cc1ccc(-c2ccccc2C(=O)O)cc1F` [heminapadisylate form, Crystalline Heminapadisylate Salt of 4′-{2-Ethoxy-4-ethyl-5-[((S)-2-mercapto-4-methylpentanoylamino)methyl]imidazol-1-ylmethyl}-3′-fluorobiphenyl-2-carboxylic Acid], in data set [1], the “thermal stability on storage” value is given as “more stable than the previously known freebase form” and the “Purity Change” value is reported as −0.1%. Also, the “temperature below which no significant thermal decomposition is seen (DSC)” value in data set [2] is ≥ 181 °C. For the same molecule, in data set [4] (5% RH to 90% RH), the “weight gain … to 90% RH” value is “about 0.97%”. In addition, in data set [4], the “weight gain when exposed to up to 70% RH” value is given as “less than 0.68%”. Moreover, the “solubility compared with the freebase” value in data set [5] was “more soluble than the freebase”.

For `CCOc1nc(CC)c(CNC(=O)[C@@H](S)CC(C)C)n1Cc1ccc(-c2ccccc2C(=O)O)cc1F` [mono-oxalate salt, Crystalline Mono-oxalate Salt of 4′-{2-Ethoxy-4-ethyl-5-[((S)-2-mercapto-4-methylpentanoylamino)methyl]imidazol-1-ylmethyl}-3′-fluorobiphenyl-2-carboxylic Acid], the “temperature below which no significant thermal decomposition is seen (DSC)” value in data set [2] was ≥ 140 °C. In addition, the “DMS moisture sorption/desorption behaviour” value in data set [4] (5% RH to 90% RH) was “picks up moisture gradually from 5% RH to 90% RH, and loses the moisture during drying segment”.
